Laboratory results taken from patent US8809395B2, “Methods for making valerenic acid derivatives and their use” (Valericon GmbH, priority 2009, dated 2014).

Columns and labels:
[1] = test system: c57B1/6N mice; experiment: Seizure threshold by pentylenetetrazole (PTZ) tail-vein infusion; assay type: in vivo; details: for seizure threshold: intraperitoneally, 30 min prior to test
Experimental: Seizure threshold was determined by pentylenetetrazole (PTZ) tail-vein infusion at a rate of 100 μl/min ([…] PTZ in saline, pH 7.4) on freely moving animals. 30 min prior to test c57B1/6N mice were intraperitoneally injected with either saline (=control group), VA or VA derivatives at the indicated concentrations. […] Animals were immediately anaesthetized using increasing carbon dioxide concentrations and killed by cervical displacement. The seizure threshold dose was calculated from the infused volume in relation to body weight. Results from tail-vein infusion were verified by intraperitoneal injection of a fixed dose of 30 mg PTZ/kg body weight. Animals were observed and video-tracked for 20 min after treatment.

[2] = target: T1, GABAA channels composed of α1β3 subunits (Rattus norvegicus, UniProt P62813+P63079); experiment: Modulation of IGABA, two-microelectrode voltage-clamp on recombinant GABAA receptors expressed in Xenopus laevis oocytes; assay type: cell-based; details: for EC50 / Hill-Coefficient (nH): GABA EC3-5; for Emax: GABA EC3-5, read-out: Maximum stimulation of IGABA (EC3-5)
T1 construct: expressed in transfected cells; host or cells: Xenopus laevis oocytes injected with cRNA transcribed from cDNA in pCMV vector
T1 sequence (P62813 28-455): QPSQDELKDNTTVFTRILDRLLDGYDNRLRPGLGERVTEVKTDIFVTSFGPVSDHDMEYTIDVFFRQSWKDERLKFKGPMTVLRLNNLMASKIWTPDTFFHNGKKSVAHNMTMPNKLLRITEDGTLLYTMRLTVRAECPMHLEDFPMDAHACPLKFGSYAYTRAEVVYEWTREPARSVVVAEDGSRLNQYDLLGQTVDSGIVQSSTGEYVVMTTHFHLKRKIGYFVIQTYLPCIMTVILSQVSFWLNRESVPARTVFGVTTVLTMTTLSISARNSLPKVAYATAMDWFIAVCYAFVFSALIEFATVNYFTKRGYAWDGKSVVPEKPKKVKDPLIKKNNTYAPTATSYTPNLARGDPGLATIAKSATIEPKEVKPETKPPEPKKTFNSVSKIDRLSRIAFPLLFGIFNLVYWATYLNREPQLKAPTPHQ
T1 sequence (P63079 26-473): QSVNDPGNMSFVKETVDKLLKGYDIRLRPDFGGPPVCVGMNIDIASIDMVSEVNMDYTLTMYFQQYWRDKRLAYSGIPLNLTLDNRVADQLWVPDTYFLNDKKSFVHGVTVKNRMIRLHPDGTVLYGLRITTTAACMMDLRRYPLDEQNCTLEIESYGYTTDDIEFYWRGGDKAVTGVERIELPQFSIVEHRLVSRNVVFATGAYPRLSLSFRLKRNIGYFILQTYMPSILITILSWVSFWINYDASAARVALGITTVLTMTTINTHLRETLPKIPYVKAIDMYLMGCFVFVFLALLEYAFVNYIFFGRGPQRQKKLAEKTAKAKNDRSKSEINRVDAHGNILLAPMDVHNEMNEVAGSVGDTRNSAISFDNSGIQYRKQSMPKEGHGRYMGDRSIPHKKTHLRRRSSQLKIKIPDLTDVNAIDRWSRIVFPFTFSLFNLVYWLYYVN
Experimental: Preparation of stage V-VI oocytes from Xenopus laevis and synthesis of capped off run-off poly(A^+) cRNA transcripts from linearized cDNA templates (pCMV vector) were performed as described (Khom et al. 2006). Briefly, female Xenopus laevis (NASCO, USA) were anaesthetised by exposing them for 15 minutes to a 0.2% solution of MS-222 (methane sulfonate salt of 3-aminobenzoic acid ethyl ester; Sandoz) before surgically removing parts of the ovaries. Follicle membranes from isolated oocytes were enzymatically digested with 2 mg/ml collagenase (Type 1A, Sigma). One day after isolation, the oocytes were injected with about 10-50 nl of DEPC-treated water (diethyl pyrocarbonate, Sigma, Germany) containing the different cRNAs at a concentration of approximately 300-3000 pg/nl/subunit. The amount of cRNA was determined by means of a Nanoprop ND-1000 (Kisker-biotech, Steinfurt, Germany).
cRNAs were mixed in a ratio of 1:1 for the expression of α1β3 receptors. Oocytes were stored at 18° C. in ND96 solution (Methfessel et al., 1986). Electrophysiological experiments were done using the two-microelectrode voltage-clamp method at a holding potential of −70 mV making use of a TURBO TEC 01C amplifier (npi electronic, Tamm, Germany) and an Axon Digidata 1322A interface (Molecular Devices, Sunnyvale, Calif.). Data acquisition was carried out using pCLAMP v.9.2. The bath solution contained 90 mM NaCl, 1 mM KCl, 1 mM MgCl2.6H2O, 1 mM CaCl2 and 5 mM HEPES (pH 7.4). Microelectrodes were filled with 2M KCl and had resistances between 1 and 3 MΩ (Khom et al., 2007).
GABA and valerenic acid derivatives, respectively, were applied by means of fast perfusion system (see Baburin et al. 2006 for details; Khom et al. 2006). Drug or control solutions were applied by means of a TECAN Miniprep 60 permitting automation of the experiments. To elicit IGABA the chamber was perfused with 120 μl of GABA-containing solution at a rate of between 300 and 1000 μl/s. The IGABA rise time was in the range of between 100 and 250 ms (see Khom et al. 2006). Care was taken to account for possible slow recovery from increasing levels of desensitization in the presence of high GABA, valerenic acid and derivatives concentrations. Oocytes with maximal current amplitudes >3 μA were discarded to exclude voltage-clamp errors (Khom et al., 2006; Baburin et al., 2006; Khom et al., 2007).
Stimulation of chloride currents by modulators of the GABAA receptor was measured at a GABA concentration eliciting between 3% and 5% of the maximal current amplitude (EC3-5). The EC3-5 was determined at the beginning of each experiment. Enhancement of the chloride current was defined as (I(GABA+Comp)/IGABA)−1, where I(GABA+Comp) is the current response in the presence of a given compound (valerenic acid or derivative) and IGABA is the control GABA current. To measure the sensitivity of the GABAA receptor for a given compound, the compound was applied for an equilibration period of 1 minute before applying GABA (EC3-5). Concentration-response curves were generated and the data were fitted by non-linear regression analysis using Origin software (OriginLab Corporation, USA). Data were fitted to the equation:
[formula] where nH is the Hill coefficient. Each data point represents the mean±S.E. from at least 4 oocytes and 2 oocyte batches. Statistical significance was calculated using the paired Student t-test with a confidence interval of p<0.05 (Khom et al., 2007). 4.2.2. Modulation of IGABA by VA Derivatives
Furthermore, the modulation of IGABA by VA derivatives was investigated at a GABA EC3-5 concentration in a system as outlined under 4.2.1, i.e. on recombinant GABAA receptors expressed in Xenopus laevis oocytes. Thus, modulation of IGABA by VA derivatives was studied on GABAA channels composed of α1β3 subunits.

[3] = test system: mice (C57B1/6N); experiment: Mouse Elevated Plus Maze (EPM) test; assay type: in vivo; details: 3 mg/kg BW, injected 30 min prior to testing, assessed over 5 minutes
Experimental: Male mice (C57B1/6N) were obtained from Charles River Laboratories (Germany). For breeding and maintenance mice were housed in groups with free access to food and water.
Temperature was fixed to 23±1C and 60% humidity with a 12 h light-dark cycle (lights on 0700-1900 hours). Age and testing experience matched male mice at 3-8 months for all experiments. All procedures involving animals were approved by the Austrian Animal Experimentation Ethics Board in compliance with the European convention for the protection of vertebrate animals used for experimental and other scientific purposes ETS no.: 123.
Mice were transferred to the testing facility 24 h before commencement of experiments. Tests were performed between 0900 and 1300 hours. All tests were video monitored and evaluated by an experimenter blinded to the administered compound. […]
Behaviour was tested over 5 minutes on an elevated plus maze (1 meter above ground) consisting of two closed and two open arms, each 50 cm×5 cm in size. […] Analysis of open and closed arm entries and time on open arm was automatically recorded using Video-Mot 2 equipment and software (Wittmann et al., 2008). […]

| SMILES | EC50 [2] | Hill-Coefficient (nH) [2] | Emax [2] | anticonvulsant effects (in words) ([1]; 30 mg/kg bodyweight) | further results |
| --- | --- | --- | --- | --- | --- |
| CC1=C2[C@H](/C=C(\C)C(=O)O)CC[C@@H](C)[C@H]2CC1 [VA, (E)-3-[(4S,7R,7aR)-3,7-dimethyl-2,4,5,6,7,7a-hexahydro-1H-inden-4-yl]-2-methylprop-2-enoic acid, reference compound] |  |  |  |  | seizure threshold ([1]; 3 mg/kg bodyweight): 47.7±2.7 mg PTZ/kg; seizure threshold (in words) ([1]; concentrations ≧3 mg/kg bodyweight, vs. saline): significantly increased |
| CC1=C2[C@H](/C=C(\C)C(N)=O)CC[C@@H](C)[C@H]2CC1 [VA-A, (E)-3-((4S,7R,7aR)-3,7-dimethyl-2,4,5,6,7,7a-hexahydro-1H-inden-4-yl)-2-methylacrylamide] | 13.7 ± 2.3 µM | 1.6 ± 0.2 |  |  | time spent in the open arms of the EPM, % of total time in the test [3]: 52.1±3.9%; anticonvulsant effect compared among tested substances ([1]; 3 mg/kg bodyweight): most pronounced; seizure threshold ([1]; 3 mg/kg bodyweight): 58.6±3.7 mg PTZ/kg |
| CCCCNC(=O)/C(C)=C/[C@@H]1CC[C@@H](C)[C@H]2CCC(C)=C12 [VA-BA, (E)-N-butyl-3-((4S,7R,7aR)-3,7-dimethyl-2,4,5,6,7,7a-hexahydro-1H-inden-4-yl)-2-methylacrylamide] | 18.8 ± 6.9 µM | 1.1 ± 0.2 | 569 ± 57% |  |  |
| CCN(CC)C(=O)/C(C)=C/[C@@H]1CC[C@@H](C)[C@H]2CCC(C)=C12 [VA-DEA, (E)-3-((4S,7R,7aR)-3,7-dimethyl-2,4,5,6,7,7a-hexahydro-1H-inden-4-yl)-N,N-diethyl-2-methylacrylamide] | 23.7 ± 6.3 µM | 1.4 ± 0.1 | 901 ± 120% | significantly increased |  |
| CC1=C2[C@H](/C=C(\C)C(=O)N(C)C)CC[C@@H](C)[C@H]2CC1 [VA-DMA, (E)-3-((4S,7R,7aR)-3,7-dimethyl-2,4,5,6,7,7a-hexahydro-1H-inden-4-yl)-N,N,2-trimethylacrylamide] | 28.4 ± 7.1 µM | 2.1 ± 0.5 |  |  |  |
| CCNC(=O)/C(C)=C/[C@@H]1CC[C@@H](C)[C@H]2CCC(C)=C12 [VA-EA] | 23.4 ± 6.9 µM | 1.3 ± 0.3 |  | significantly increased |  |
| CC1=C2[C@H](/C=C(\C)C(=O)NC(C)C)CC[C@@H](C)[C@H]2CC1 [VA-IPA, (E)-3-((4S,7R,7aR)-3,7-dimethyl-2,4,5,6,7,7a-hexahydro-1H-inden-4-yl)-N-isopropyl-2-methylacrylamide] | 22.5 ± 6 µM | 1.5 ± 0.3 | 506 ± 76% |  |  |
| CNC(=O)/C(C)=C/[C@@H]1CC[C@@H](C)[C@H]2CCC(C)=C12 [VA-MA, (E)-3-((4S,7R,7aR)-3,7-dimethyl-2,4,5,6,7,7a-hexahydro-1H-inden-4-yl)-N,2-dimethylacrylamide] | 26.3 ± 6.6 µM | 1.4 ± 0.1 |  | significantly increased | anticonvulsant effect compared among tested substances ([1]; 30 mg/kg bodyweight): strongest anticonvulsant effect |
| CC1=C2[C@H](/C=C(\C)C(=O)N3CCOCC3)CC[C@@H](C)[C@H]2CC1 [VA-MO, (E)-3-((4S,7R,7aR)-3,7-dimethyl-2,4,5,6,7,7a-hexahydro-1H-inden-4-yl)-2-methyl-1-morpholinoprop-2-en-1-one] | 64.2 ± 13.8 µM | 1.6 ± 0.2 |  |  |  |
| CC1=C2[C@H](/C=C(\C)C(=O)N3CCCCC3)CC[C@@H](C)[C@H]2CC1 [VA-PIP, (E)-3-((4S,7R,7aR)-3,7-dimethyl-2,4,5,6,7,7a-hexahydro-1H-inden-4-yl)-2-methyl-1-(piperidin-1-yl)prop-2-en-1-one] | 54.6 ± 17 µM | 1.6 ± 0.3 |  |  |  |
